# From US11326167B2, “Methods and compositions for treating atherosclerosis” (YALE UNIVERSITY, priority 2016, dated 2022)
# Key:
# Apoe^−/− mice = experiment: Oil Red O atherosclerotic lesion area after 7C1-siTgfbr and/or rapamycin, 4 months of high fat diet; format: in vivo, mouse
# Description: FIGS. 45A-45B are a graph and a series of images showing that 7C1-siTgfbr and rapamycin suppress atherosclerosis lesion development in Apoe^−/− mice after 4 months of high fat diet. FIG. 45A: Time frame of 7C1-siTgfbr1/Tgfbr2 lipid nanoparticle and rapamycin injections. FIG. 45B: Representative photomicrographs of Oil Red O-stained atherosclerotic lesions in PBS, 7C1-siLuciferase, DMSO, Rapamycin, or 7C1-siTgfbr treated mice.
# FIG. 46 is a histogram illustrating the quantification of atherosclerotic lesions from FIG. 45B. Lesion area quantification. % Lesion area is the lesion area/total area of aorta. All data shown as mean±SD. (***p<0.001; one-way ANOVA with Newman-Keuls post hoc test for multiple comparison correction).
# Apoe^−/− and Frs2^SMCKO/Apoe^−/− male mice were fed a Western diet (40% kcal % Fat, 1.25% Cholesterol, 0% Cholic Acid) for 8 or 16 weeks (Research Diets, product #D12108) starting at the age of 8 weeks. After 8 or 16 weeks of being fed a high-fat diet, mice were anesthetized and euthanized. […] The lesions located in the aorta, aortic roots and abdominal aorta were analyzed using Oil Red 0 staining. […] The surface lesion area was quantified with ImageJ software (NIH). […]
# FIG. 46 is a histogram illustrating the quantification of atherosclerotic lesions from FIG. 45B. […]
# [1] = system: Apoe^−/− and Frs2α^iECKO/Apoe^−/− mice; experiment: Tolerability of 7C1-let-7 injections: body weight, blood counts, serum lipids, organs, liver function, skin; format: in vivo, mouse; details: after 16 weeks on high cholesterol diet
# Description: FIGS. 24A-24E are a series of graphs showing that 7C1-let-7 mimics treatment have no effect on mouse body weight and serum lipid profile. FIG. 24A: Time frame of gene inactivation and 7C1 lipid nanoparticle injections. FIG. 24B: Serum triglycerides, total cholesterol, and HDL-C levels from Apoe^−/− and Frs2^iECKO/Apoe^−/− mice after 16 weeks on a high cholesterol diet (NS: not significant by one-way ANOVA with Newman-Keuls post-hoc test). FIG. 24C: Individual body weights in each group were measured every week. FIGS. 24D-24E: qPCR analysis of let-7b and Tgfbr1 expression in lung endothelial cells after treatment with 7C1-let-7 particles. All data shown as mean±s.d. (*p<0.05; **p<0.01; ***p<0.001 compared with Luciferase; one-way ANOVA with Newman-Keuls post hoc test for multiple comparison correction). N=4-6 mice per group.
# Serum was obtained through centrifugation of the blood for 2 min at 10,000 rpm at 4° C. and stored at −80° C. until each assay was performed. […]
# A decline in let-7 miRs expression has been previously linked to activation of TGFβ signaling (Chen et al., 2012, Cell reports 2: 1684-1696; Chen et al, 2014 Science signaling 7, ra90). […] Measurements of the following were taken from mice in each group: body weight, complete blood counts, skin pictures, serum lipid profiles, organ weight, and whole aorta oil red-O staining and quantification (FIGS. 24C, 25, 23, 24B, 27, and 29).
# [2] = system: primary human aortic smooth muscle cells (HASMCs); experiment: Immunoblot of p-Smad2 and SM-calponin in control and FRS2α knockdown HASMCs treated with SB431542; format: cell-based; details: SB431542 10 μM
# Description: FIGS. 2A-2F are images and plots showing that FRS2α knockdown increases smooth muscle marker gene expression via the TGFβ pathway in primary human aortic smooth muscle cells (HASMCs). […] Blots are representative of four independent experiments. […] R-actin was used for sample loading normalization. […] FIGS. 2D-2F show immunoblots of smooth muscle markers, phosphorylated Smad2 (p-Smad2), and TGFβR1 expression in control and FRS2α knockdown HASMCs treated with SB431542 ([…]), TGFβR2 or Smad2 shRNA lentiviruses. Blots are representative of three independent experiments.
# The TGFβR1 kinase inhibitor SB431542 (Sigma S4317) was reconstituted in DMSO (Sigma D2650) and used at a final concentration of 10 μM in cell culture.
# Mouse Tgfbr1 and Tgfbr2 shRNA lentiviral constructs were purchased from Sigma. Human FGFR1, human Smad2 and human TGFβR2 shRNA lentiviral constructs were purchased from Sigma and human FRS2α shRNA lentiviral construct was purchased from Open Biosystems. For the production of shRNA lentivirus, 3.7 μg of A8.2, 0.2 μg of VSVG, and 2.1 μg of pLKO.1 carrying the control, FGFR1, FRS2α, Smad2, or TGFβR2 shRNA were co-transfected into 293T cells using X-tremeGENE 9 DNA Transfection Reagent (Roche 06365787001). Forty-eight hours later the medium was harvested, cleared by 0.45 μm filter (PALL Life Sciences PN4184), mixed with polybrene (5 μg/ml) (Sigma H9268), and applied to cells. […]
compound,measurement,setting,value
CO[C@H]1C[C@@H]2CC[C@@H](C)[C@@](O)(O2)C(=O)C(=O)N2CCCC[C@H]2C(=O)O[C@H]([C@H](C)C[C@@H]2CC[C@@H](O)[C@H](OC)C2)CC(=O)[C@H](C)/C=C(\C)[C@@H](O)[C@@H](OC)C(=O)[C@H](C)C[C@H](C)/C=C/C=C/C=C/1C [rapamycin],reduction in atherosclerotic lesion (% lesion area = lesion area/total area of aorta),Apoe^−/− mice,58%
"mi-let-7bL: lightly 2′-O-methyl modified double stranded let-7b miRNA mimic, 5p UGAGGuAGuAGGUUGUGUGGUU, 3p CuAuAcAACCuACUGCCUUCCC","serum triglycerides, total cholesterol and HDL cholesterol levels (serum lipid profile)",[1],similar
NC(=O)c1ccc(-c2nc(-c3ccc4c(c3)OCO4)c(-c3ccccn3)[nH]2)cc1 [SB431542],FRS2α knockdown-induced increase in SM-calponin levels,[2],effectively attenuated
same,FRS2α knockdown-induced increase in p-Smad2 levels,[2],effectively attenuated
"mi-let-7bH: heavily 2′-O-methyl modified double stranded let-7b miRNA mimic, 5p UGAGGuAGuAGGUUGUGUGGUU, 3p cuAuAcAAccuAcuGccuuccc","serum triglycerides, total cholesterol and HDL cholesterol levels (serum lipid profile)",[1],similar
